For assay [1], the target named is T1, recombinant tau K18 aggregates (Homo sapiens, UniProt P10636).
T1 construct: Recombinant tau K18 fragments, […]; made in house; host or cells: Escherichia coli BL21 (DE3)
In words: ThT fluorescence tau K18 disaggregation assay. It counts as biochemical. The settings on record: K18 35 μM pre-aggregated 3 days, 50 and 500 μM compound for additional 3 days; concentration of the printed value not stated. How it is done:
ThT fluorescence was used to assess the in vitro inhibition of Aβ(1–42) and disaggregation of Aβ(1–42), Aβ(1–40), Aβ(pE3-42), recombinant tau K18, and tau repeats R1, R2, R3, R4 by YIAD compounds. In house synthetic Aβ(1–42) was dissolved in DMSO (1 mM, 100% DMSO) and diluted to 20-fold in deionized water to make 50 μM Aβ(1–42) stocks (5% DMSO). YIAD compounds were first dissolved in DMSO (100 mM, 100% DMSO) and serially diluted with deionized water to make YIAD stocks with concentrations of 1, 10, 100, and 1000 μM (10% DMSO). For the Aβ(1–42) inhibition assay, monomeric Aβ(1–42) stocks and YIAD stocks were co-incubated at 37°C for 3 days. For Aβ(1–42) disaggregation assay, monomeric Aβ(1–42) stocks were preincubated at 37°C for three days to form Aβ(1–42) aggregates, and subsequently, YIAD stocks were added for an additional 3 days. For Aβ(1-40) disaggregation assays, Aβ(1–40) (50 μM, 5% DMSO) was preincubated at 37°C for 3 days to induce aggregation, and co-incubated with YIAD001 and YIAD002 for an additional 3 days. […] Prior to fluorescence intensity measurement, ThT solution (5 μM) was prepared by dissolving ThT, purchased from Sigma-Aldrich (MO, USA) in 50 mM glycine buffer (pH 8.5). To quantify the effect of inhibition and disaggregation, 25 μL of all samples and 75 μL of ThT solution were loaded into a half-area 96-well black plate in triplicate.

Another assay has as its system 5XFAD mice. In words: 6E10 immunohistochemical staining of amyloid plaques in 5XFAD mice after oral administration. It counts as in vivo, mouse. To be noted: 50 mg/kg/day via drinking water, 5 weeks, 4.5-month-old female 5XFAD mice, vs vehicle. How it is done:
To test the in vivo efficacy of YIAD001 and YIAD002, female 5XFAD mice (n = 25) and female wildtype mice (n = 7) were assessed at the age of 4.5 months. YIAD compounds were dissolved in DMSO and diluted in drinking water to a final concentration of 50 mg/kg/day (5% DMSO, 5% Tween) for oral administration. The three compounds, YIAD001, YIAD002, and YIAD003, were freely administered via drinking water to 4.5-month-old 5XFAD mice (n = 6 for each group) for 5 weeks. As a control, 5% DMSO, 5% Tween in drinking water was provided ad libitum to littermate 5XFAD mice (n = 7) and wildtype mice (n = 7) for 5 weeks.
After the administration period, the mice were deeply anaesthetized with 4% avertin through intraperitoneal injection and transcardially perfused with 0.9% saline. Subsequently, the mice were sacrificed for brain excision. Each collected brain was divided through the mid-sagittal section; the hippocampal and cortical regions were dissected from one half and stored at −80°C for subsequent brain lysates, while the other half was immersed in 4% paraformaldehyde (pH 7.4) for 24 h and 30% sucrose for 48 h at 4°C and subsequently deep-froze at −80°C for immunohistochemistry.
Coronal hippocampal sections of 5XFAD mice brains (35 μm) were cut with a Cryostat (Leica, CM1860) and mounted onto glass slides. Antigen retrieval was performed by submerging slides in 1% SDS and unspecific binding was blocked through incubation in 20% horse serum in PBS for 1 h at RT. Aβ deposits were visualized through immunolabeling by anti-6E10 antibody (1:200 in PBS with 5% horse serum, Biolegend 803003) and detection by fluorescent secondary antibody (1:200 in PBS, IgG Alexa 488). Brain sections were additionally stained with Hoechst 33342. Fluorescent images of the brain sections were taken on a Leica DM2500 fluorescence microscope. Amyloid plaques were quantified using Image-J software (NIH).

In assay [2] the target is T2, Aβ-Aβ interactions (Aβ(1–42) fragments) (Homo sapiens, UniProt P05067).
T2 construct: we added monomeric Aβ(1–42) (10 μM) labeled with fluorescent dye Flamma 552 to each well
T2 sequence (P05067 672-713): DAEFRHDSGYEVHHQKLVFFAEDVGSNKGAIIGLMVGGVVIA
In words: Mapping assay of Aβ(1–42) with peptide fragments. It counts as biochemical. The settings on record: YIAD002 500 μM, 24 h, Flamma 552-labeled Aβ(1–42) 10 μM, compared to full-length Aβ(1–42) control. On the procedure:
Aβ fragments made up of six overlapping amino acid residues and a cysteine residue at the C-terminal were acquired by Fmoc solid phase peptide synthesis as previously described. Full length Aβ(1–42) with an additional cysteine residue at the C-terminal was used for comparison. The peptides were dissolved in DMSO ([…]) and diluted in binding buffer (0.1 M sodium phosphate, 0.15 M sodium chloride, 10 mM EDTA; pH 7.2) to prepare 50 μg/mL peptide solutions. To immobilize the Aβ fragments and monomers to maleimide-activated microplates, 100 μL of peptide solutions (50 μg/mL) was added and incubated at RT for 2 h while shaking. Cysteine solution (10 μg/mL with binding buffer) was added to cap unreacted maleimide groups. […] To define the fluorescence baseline for each well, fluorescence intensity was measured at 555 (excitation) and 580 (emission). YIAD002 (500 μM in binding buffer, 7.5% DMSO) was added to each well and incubated at RT for 24 h while shaking. Fluorescence intensity was remeasured at 555 (excitation) and 580 (emission) and baseline fluorescence was subtracted to quantify the change in fluorescence intensity caused by YIAD002. The plate was washed with 200 μL of wash buffer (0.1 M sodium phosphate, 0.15 M sodium chloride, 0.05% Tween®-20 Detergent; pH 7.2) per well three times in between steps.

T1 sequence (P10636 561-689): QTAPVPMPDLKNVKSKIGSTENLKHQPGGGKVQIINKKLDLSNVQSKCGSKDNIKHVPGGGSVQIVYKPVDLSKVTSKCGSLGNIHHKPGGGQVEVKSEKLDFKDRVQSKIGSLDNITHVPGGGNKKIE

As to `CCC(C)(C)c1ccc(OCC(O)CN2CCOCC2)c(C(C)(C)CC)c1.Cl` (stereo not drawn) [YIAD001, 4-(3-(2,4-Di-tert-pentylphenoxy)-2-hydroxypropyl)morpholin-4-ium chloride], the “Reduction of K18 aggregates (disaggregation, ThT)” value in assay [1] was determined as 18.06%. Further, the “Number of 6E10-stained plaques” value in the assay with 5XFAD mice was “significantly reduced”.
As to `CCC(C)(C)c1ccc(OCC(O)CN2CCCC2)c(C(C)(C)CC)c1.Cl` (stereo not drawn) [YIAD002, 1-(3-(2,4-Di-tert-pentylphenoxy)-2-hydroxypropyl)pyrrolidin-1-ium chloride], in assay [2], the “Dissociation of Aβ-Aβ interactions at immobilised Aβ fragments” value is “markedly dissociated Aβ-Aβ interactions at residues Aβ(16–21), KLVFFA, and Aβ(32–37), IGLMVG”. Further, the “Reduction of K18 aggregates (disaggregation, ThT)” value in assay [1] was 58.96%. In addition, in the assay with 5XFAD mice, the “Number of 6E10-stained plaques” value was “significantly reduced” and the Plaque area result is on record as “significant decrease”.
